Measured values published in US20220381657A1, “METHOD FOR PREPARING BIOLOGICAL MATERIAL HAVING EXCELLENT LIGHT-TRANSMITTING PROPERTY” (RIKEN, priority 2016, published 2022).
Entries after “also recorded” stand apart in the source; their conditions may differ. Read-outs that look alike come from different tables or passages of the source. Each block holds one molecule with its values, some of them ahead of it.

Columns and labels:
mouse spleen = test: Decoloring of mouse spleen (OD420 of supernatant, transmissive image); conditions: 10 wt % solution, 37° C. overnight
[1] = system: fixed brain tissue suspension; test: 1st delipidation assay: solubilization of fixed brain tissue suspension, turbidity at 600 nm; set-up: species or system mice; conditions: Table 1; 10 wt % chemical, fixed mouse brain suspension, 37° C. overnight; PBS = 1.000
Description: Specifically, brains taken out of mice were sheared with a utility knife and then were disrupted by ultrasonication. To each of the resultant suspensions, an equal volume of 8% PFA solution was added to perform fixation at 4° C. for 1 hour. The resultant mixture was centrifuged to remove the supernatant, and the fixed brain tissue was washed with PBS for 3 times. PBS was added so as to obtain 2 mL of a fixed brain tissue suspension per brain. The fixed brain tissue suspension was diluted by 3.5 folds. To 20 μL of the resultant suspension, 130 μL of each 10 wt % chemical was added and was shaken at 37° C. overnight. Thus obtained mixed solutions were subjected to absorbance (turbidity) measurement at 600 nm. It is expected that a chemical solution which reduces the turbidity of a fixed brain suspension allows reducing light scattering by solubilizing lipids, which act as a scattering factor, in the brain tissue.

[2] = for 400 nm: OD at 400 nm of the chemical
Serius = conditions: relative fluorescence
mouse hemisphere = test: Delipidation and clearing of mouse hemisphere (transmittance, phospholipid and cholesterol content)
Description: Subsequently, the delipidation efficiency of the series of compounds in mammalian tissue was examined. […] The transmittance of the brain tissue was measured, and then the brain tissue was washed with PBS and was disrupted. […] It was thus shown that the above basic chemicals and some neutral chemicals were better than the detergents from the viewpoint of permeability with respect to tissue. […] Subsequently, the mouse hemisphere was subjected to refractive index adjustment with CUBIC-2A. […] Accordingly, #0414 (N-butyldiethanolamine) was selected as a highly-efficient delipidation chemical.

bovine coagulated blood = test: Decoloring screening: heme eluted from bovine coagulated blood (OD420-OD700); conditions: decolorization; for 700 nm calibrated 420 nm Average: OD420 calibrated by OD700; for integrated value 500-700 nm Average: integrated absorbance 500-700 nm
[3] = 1st RI evaluation assay: refractive index at 589 nm of 10 wt % aqueous solution; assay type: physicochemical; conditions: Table 3
From the text: (§1) The refractive index of an aqueous solution is commonly known to increase in a solute concentration-dependent manner, and the refractive index of a reagent per unit weight of the reagent varies among individual reagents. Accordingly, two properties are required in order to prepare a high refractive index aqueous solution: (1) an extremely high water-solubility and (2) a […] which allows achieving a high refractive index in a low-concentration aqueous solution.

EGFP = EGFP (Aequorea victoria, UniProt P42212, F64L/H231L/S65T); assay type: biochemical; conditions: for retention of fluorescence of a fluorescent protein: stated in the description
Description: (FIG. 7). […] A mouse hemisphere was treated with use of each 10 wt % chemical solution at 37° C. for 3 days, and was washed with PBS. Subsequently, the mouse hemisphere was subjected to refractive index adjustment with CUBIC-2A.

[4] = Refractive index of high-concentration aqueous solution; assay type: physicochemical; conditions: Table 3; chemical conc. 70 wt %
From the text: as §1

mouse brain = test: Swelling and clearing of delipidated mouse brain; conditions: CUBIC-1 delipidated brain, shaken 3 days

Structure (SMILES): Cn1ccnc1 [1-methylimidazole]
mouse spleen decoloring activity (mouse spleen): equivalent decoloring activity

400 nm [2]: 0.05 | OD400 ([2]; Table 1): 0.05 | pH (Table 1): 12.7 | pH ([…]): 12.7
Structure (SMILES): CCCCN(CCO)CCO [#0414, N-Butyldiethanolamine]
1st delipidation assay Relative OD600 [1]: 0.261 | Fluorescence quench Average (Serius): 0.70 | organ transparency (mouse hemisphere; #0414 versus #0389, basic chemicals): superiority | 700 nm calibrated 420 nm Average (bovine coagulated blood): 1.30 | integrated value 500-700 nm Average (bovine coagulated blood): 1.45

OD400 ([2]; Table 3): 0.049 | 1st RI evaluation assay RI of 10% chemical [3]: 1.3555 | pH (Table 3): 6.8
Structure (SMILES): CNC(=S)NC [#0637, 1,3-Dimethyl-thiourea]

Structure (SMILES): CCn1ccnc1 [#0938, 1-ethylimidazole]
retention of fluorescence of a fluorescent protein (EGFP): allows fluorescence of a fluorescent protein to be retained | mouse spleen decoloring activity (mouse spleen): highest | 400 nm [2]: 0.053 | Fluorescence quench Average (Serius): 0.80 | pH ([…]): 12.1 | 700 nm calibrated 420 nm Average (bovine coagulated blood): 6.19 | integrated value 500-700 nm Average (bovine coagulated blood): 3.41

OD400 ([2]; Table 1): 0.048 | pH (Table 1): 9.3
Structure (SMILES): CCCCC(O)CO (centres unmarked) [#1051, 1,2-Hexanediol]
1st delipidation assay Relative OD600 [1]: 0.300 | degree of delipidation and clearing of mouse hemisphere (mouse hemisphere; 10 wt % chemical, 37° C., 3 days, then CUBIC-2A, compared with detergents #1035, #1455, #1460, Triton X-100): higher degrees of delipidation and clearing

Structure (SMILES): CNC(=O)c1cccnc1 [#1283, N-Methyl- nicotinamide]
2nd quenching assay EGFP fluorescence (EGFP; Table 3): quench free | retention of fluorescence of a fluorescent protein (EGFP): allowing retention of fluorescence of a fluorescent protein; also recorded: allows fluorescence of a fluorescent protein to be retained | 400 nm [2]: 0.063 | OD400 ([2]; Table 3): 0.063 | Fluorescence quench Average (Serius): 0.71 | RI [4]: 1.4902 | pH (Table 3): 10.7 | pH ([…]): 10.7 | 700 nm calibrated 420 nm Average (bovine coagulated blood): 2.98 | integrated value 500-700 nm Average (bovine coagulated blood): 2.81

Structure (SMILES): c1c[nH]cn1 [#1352, imidazole]
swelling of delipidated mouse brain (mouse brain): high-degree of swelling
